Source: paper PMC10293653 (International Journal of Biological Macromolecules, 2023)

Assays:
Format in all cases: cell-based
[1] = system: variants of SARS-CoV-2 (B1.1.7, B.1.351, B.1.617.2, and B.1.617.1); conditions: for prevention of infection of all clades: alone at their highest doses; for reduction of SARS-CoV-2 infection in all lineages: alone or in combination, lowest given concentration
[2] = system: B.1.1.7 (α-variant); assay: SARS-CoV-2 inhibition assay in Vero E6 cells, B.1.1.7; conditions: 0.99 μM
[3] = system: B.1.351 (β-variant); assay: SARS-CoV-2 inhibition assay in Vero E6 cells, B.1.351; conditions: 0.99 μM
[4] = system: B.1.617.2 (δ-variant); assay: SARS-CoV-2 inhibition assay in Vero E6 cells, B.1.617.2; conditions: 0.99 μM
[5] = system: B.1.617 (κ-variant); assay: SARS-CoV-2 inhibition assay in Vero E6 cells, B.1.617; conditions: 0.99 μM

| SMILES | inhibitory effectiveness against all VOCs [1] | prevention of infection of all clades [1] | reduction of SARS-CoV-2 infection in all lineages [1] | effect on α-SARS-CoV-2 growth [2] | effect on β-SARS-CoV-2 growth [3] | effect on δ-SARS-CoV-2 growth [4] | effect on κ-SARS-CoV-2 growth [5] | inhibition of viral growth among all variants ([1]; 1.98 μM) |
| --- | --- | --- | --- | --- | --- | --- | --- | --- |
| CC#CCn1c(N2CCC[C@@H](N)C2)nc2c1c(=O)n(Cc1nc(C)c3ccccc3n1)c(=O)n2C [Linagliptin, linagliptin] | dose-dependent inhibitory effectiveness | entirely prevent the infection of all clades | 6–10 folds |  |  |  |  |  |
| N[C@@H](CC(=O)N1CCn2c(nnc2C(F)(F)F)C1)Cc1cc(F)c(F)cc1F [Sitagliptin, sitagliptin] |  | entirely prevent the infection of all clades | 6–10 folds | partially inhibit | partially inhibit | unable to prevent even the partial growth | partially inhibit | 6–7 folds |
